{
  "source": "patent US8476253B2",
  "about": "“Amide derivative” (Daiichi Sankyo Company, Limited, priority 2009, dated 2013)",
  "key": {"muscarine M3 receptor": {"tested_on": "muscarine M3 receptor", "test": "Effect of suppressing methacholine-induced airway contraction (in vivo, intratracheal administration)", "set-up": "species or system guinea pig", "details": "guinea pigs, intratracheal administration 60 minutes before 30 μg/kg i.v. methacholine; AUC of increase in airway pressure over 10 minutes", "protocol": "(§1) Using healthy guinea pigs (body weight, 350 to 550 g; Hartley male guinea pigs), the effect of suppressing airway contraction induced by methacholine, which is a muscarine receptor agonist, was examined by a modified method of Konzett-Roessler (Naunyn-Schmiedebergs Arch. Exp. Pathol. Pharmakol. 195, 71 [1940]) using airway pressure as an indicator.\n(§2) A tracheal cannula and a venous cannula were attached to a guinea pig anesthetized with pentobarbital (50 mg/mL of solution, 0.40 to 0.50 mL/body, subcutaneous administration). An arterial cannula filled with heparin-containing physiological saline (100 U/mL) was further attached, and blood pressure and heart rate were monitored via an amplifier and an instantaneous heart rate meter. Subsequently, gallamine (20 mg/body, intravenous administration) was administered to terminate spontaneous breathing, and then 10 mL/kg of positive pressure breathing (Ugo-Basile Biological Research Apparatus, Cat. No. 7025) was rapidly performed at 60 times/min. The airway pressure during artificial breathing was detected with a pressure transducer (TP-200T or TP-400T; Nihon Kohden Corporation) attached to a side branch of the tracheal cannula, amplified (AP-601G; Nihon Kohden Corporation), and recorded in a recorder. After the airway pressure, blood pressure, and heart rate were stabilized, 30 μg/kg of methacholine was intravenously administered from the venous cannula to induce airway contraction, and the airway pressure was measured for the following 10 minutes.\nA test substance was dissolved in 5% glucose solution, and a 0.5 mL/kg solution was administered intratracheally with an intratracheal administration apparatus (model 1A-1B; Penn-Century, Inc.) 60 minutes before stimulation with methacholine.\n(§3) The AUC of increase in the airway pressure over 10 minutes after administration of methacholine was measured as the intensity of methacholine-induced airway contraction and calculated as an ID50 value from the inhibition rate based on the value of the control group (a 5% glucose solution intratracheal administration group)."}, "neurokinin NK1 receptor": {"biological_target": "T1, neurokinin NK1 receptor (Cavia porcellus, UniProt P30547)", "T1 construct": "Using healthy guinea pigs (body weight, 350 to 550 g; Hartley male guinea pigs); from tissue; host or cells: live anaesthetised Hartley male guinea pigs (airway, in vivo)", "T1 sequence (P30547 whole entry)": "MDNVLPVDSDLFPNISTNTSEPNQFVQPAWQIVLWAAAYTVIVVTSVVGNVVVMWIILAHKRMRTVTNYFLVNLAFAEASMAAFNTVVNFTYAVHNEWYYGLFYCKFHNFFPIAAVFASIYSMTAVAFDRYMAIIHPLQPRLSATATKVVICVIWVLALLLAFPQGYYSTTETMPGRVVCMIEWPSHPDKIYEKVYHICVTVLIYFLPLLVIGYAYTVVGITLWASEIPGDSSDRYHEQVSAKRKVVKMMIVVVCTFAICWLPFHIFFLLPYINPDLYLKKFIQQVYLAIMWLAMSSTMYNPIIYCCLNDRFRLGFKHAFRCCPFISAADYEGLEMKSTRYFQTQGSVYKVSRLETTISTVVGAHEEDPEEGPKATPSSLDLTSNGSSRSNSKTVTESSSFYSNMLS", "test": "Effect of suppressing substance P-induced airway contraction (in vivo, intratracheal administration)", "set-up": "species or system guinea pig", "details": "guinea pigs, intratracheal administration 60 minutes before 20 μg/kg i.v. SP, AUC of increase in airway pressure over 10 minutes", "protocol": "as §1, with “substance P (SP),” for “methacholine,”, “an NK1” for “a muscarine”\nas §2, with “mg/mL” for “mg/mL of”, “20” for “30”, “SP” for “methacholine”\nThe test substance was dissolved in a 5% glucose solution, a 0.5 mL/kg solution was intratracheally administered with an intratracheal administration apparatus (model 1A-1B; Penn-Century, Inc.) 60 minutes before stimulation with SP.\nas §3, with “SP” for “methacholine”, “determined” for “measured”, “SP-induced” for “methacholine-induced”, “(5%” for “(a 5%”"}, "substance P receptor": {"biological_target": "T2, substance P receptor (Cavia porcellus, UniProt P30547)", "T2 construct": "A preparation of a crude lung membrane sample was prepared; from tissue; host or cells: guinea-pig lung (crude membrane sample)", "T2 sequence (P30547 whole entry)": "as above", "test": "Test for binding to guinea-pig substance P receptor (crude lung membrane sample)", "details": "crude guinea-pig lung membrane sample, [3H]substance P; Ki from IC50 and Kd; read-out: Ki", "protocol": "A preparation of a crude lung membrane sample was prepared, and a test for binding of a test substance to the sample was performed according to the method described in EP0336230A2.\nThe binding effect of the test substance to a substance P receptor was calculated as an affinity (Ki) of the test substance for the substance P receptor from a 50% binding concentration (IC50) and an affinity (Kd) of [^3H]substance P for the substance P receptor."}, "human M3 receptor": {"biological_target": "T3, human M3 receptor (Homo sapiens, UniProt P20309)", "T3 construct": "expressed in transfected cells; host or cells: CHO cells", "T3 sequence (P20309 whole entry)": "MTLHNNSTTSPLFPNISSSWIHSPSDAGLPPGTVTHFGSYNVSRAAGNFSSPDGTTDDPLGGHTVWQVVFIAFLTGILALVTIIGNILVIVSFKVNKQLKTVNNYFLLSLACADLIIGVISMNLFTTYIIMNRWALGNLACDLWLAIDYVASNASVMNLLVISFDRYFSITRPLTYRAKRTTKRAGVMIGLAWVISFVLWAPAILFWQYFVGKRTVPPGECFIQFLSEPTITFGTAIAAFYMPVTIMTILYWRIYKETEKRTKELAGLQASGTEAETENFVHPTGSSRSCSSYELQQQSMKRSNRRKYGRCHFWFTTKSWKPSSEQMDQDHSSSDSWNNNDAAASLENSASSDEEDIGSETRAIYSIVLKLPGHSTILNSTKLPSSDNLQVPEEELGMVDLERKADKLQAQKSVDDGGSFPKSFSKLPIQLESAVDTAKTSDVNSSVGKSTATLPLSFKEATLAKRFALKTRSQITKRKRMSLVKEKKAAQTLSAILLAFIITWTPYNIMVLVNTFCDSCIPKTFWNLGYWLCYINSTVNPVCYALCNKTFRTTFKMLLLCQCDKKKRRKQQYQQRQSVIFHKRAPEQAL", "test": "Test for binding to human M3 receptor", "protocol": "A solution of cryopreserved CHO cells expressing human M3 receptor was diluted with a buffer (50 mM tris-hydrochloride containing 0.5 mM of EDTA, pH 7.4) to obtain 5.0×10^5 of cells/mL and used as a crude membrane sample.\n[N-methyl-^3H]-(−)-Scopolamine methyl chloride (GE Healthcare Japan Corporation) was diluted with 50 mM of tris-hydrochloride containing 0.5 mM of EDTA (pH 7.4), a test substance and 250 μL of the crude membrane sample solution were added to 250 μL of the mixture, and the mixture was incubated at room temperature for 60 minutes. […] The glass fiber filter paper was pretreated with a 0.1% polyethylenimine solution for 4 hours or longer to minimize non-specific binding. The filter collecting membrane components was transferred to a small-size plastic vial containing 3 mL of Pico-Fluor, and the radioactivity was measured with a liquid scintillation counter (Tri-Carb 2900TR or 2300TR; Perkin Elmer).\nThe effect of binding to the M3 receptor was calculated as the affinity (Ki) of the test substance for the M3 receptor from a 50% binding dose (IC50) and the affinity (Kd) of [N-methyl-^3H]-(−)-Scopolamine methyl chloride for the M3 receptor."}, "human NK2 receptor": {"biological_target": "T4, human NK2 receptor (Homo sapiens, UniProt P21452)", "T4 construct": "expressed in transfected cells; host or cells: COS cells", "T4 sequence (P21452 1-398)": "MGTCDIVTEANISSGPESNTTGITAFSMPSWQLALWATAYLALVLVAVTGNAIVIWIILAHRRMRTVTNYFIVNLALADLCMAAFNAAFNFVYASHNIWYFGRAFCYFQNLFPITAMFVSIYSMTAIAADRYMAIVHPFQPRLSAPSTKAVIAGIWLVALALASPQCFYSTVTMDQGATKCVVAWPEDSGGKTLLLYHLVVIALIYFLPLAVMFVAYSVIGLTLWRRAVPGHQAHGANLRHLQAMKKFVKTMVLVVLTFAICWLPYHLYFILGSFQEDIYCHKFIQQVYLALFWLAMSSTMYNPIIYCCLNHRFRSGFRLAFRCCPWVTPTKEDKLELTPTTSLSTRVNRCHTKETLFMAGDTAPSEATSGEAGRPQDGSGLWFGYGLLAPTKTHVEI", "test": "Test for binding to human NK2 receptor", "protocol": "A solution of cryopreserved COS cells expressing human NK2 receptor was diluted with a buffer (50 mM tris-hydrochloride containing 0.04% of bovine serum albumin [BSA], pH 7.4) to obtain a concentration of 5.0×10^5 cells/mL and used as a crude membrane sample.\n[^3H]SR 48968 (GE Healthcare Japan Corporation) was diluted with a mixture of 50 mM of tris-hydrochloride (pH 7.4), 6 mM of manganese chloride tetrahydrate, 800 μg/mL of BSA, 8 μg/mL of chymostatin, 8 μg/mL of leupeptin, 80 μg/mL of bacitracin, and 20 μg/mL of phosphoramidon. […] After the reaction, the membrane components were collected on a GF/B glass fiber filter paper (Whatman; Biomedical Research and Development Laboratories, Inc.) with an automated filtration system (Brandel; Biomedical Research and Development Laboratories, Inc.). The glass fiber filter paper was pretreated with a 0.1% polyethylenimine solution for 4 hours or longer to minimize non-specific binding. The filter collecting the membrane components was transferred to a small-size plastic vial containing 3 mL of Pico-Fluor, and the radioactivity was measured with a liquid scintillation counter (Tri-Carb 2900TR or 2300TR; Perkin Elmer).\nThe effect of binding to the NK2 receptor was calculated as the affinity (Ki) of the test substance for the NK2 receptor from a 50% binding dose (IC50) and the affinity (Kd) of [^3H]SR 48968 for the NK2 receptor."}, "neurokinin NK2 receptor": {"biological_target": "T5, neurokinin NK2 receptor (Cavia porcellus, UniProt Q64077)", "T5 construct": "Using healthy guinea pigs (body weight, 350 to 550 g; Hartley male guinea pigs); from tissue; host or cells: live anaesthetised Hartley male guinea pigs (airway, in vivo)", "T5 sequence (Q64077 1-402)": "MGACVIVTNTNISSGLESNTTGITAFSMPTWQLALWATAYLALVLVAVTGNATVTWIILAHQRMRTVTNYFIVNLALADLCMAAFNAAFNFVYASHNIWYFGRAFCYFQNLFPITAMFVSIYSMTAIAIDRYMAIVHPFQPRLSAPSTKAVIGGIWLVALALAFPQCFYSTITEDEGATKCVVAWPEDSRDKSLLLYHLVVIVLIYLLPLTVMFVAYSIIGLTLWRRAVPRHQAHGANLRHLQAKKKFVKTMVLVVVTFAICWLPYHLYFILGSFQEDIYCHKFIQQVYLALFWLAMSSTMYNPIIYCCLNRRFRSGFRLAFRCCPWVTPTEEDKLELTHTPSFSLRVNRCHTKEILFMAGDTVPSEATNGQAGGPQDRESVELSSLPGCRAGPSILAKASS", "test": "Effect of suppressing neurokinin A-induced airway contraction (in vivo, intratracheal administration)", "set-up": "species or system guinea pig", "details": "guinea pigs, intratracheal administration 60 minutes before 4 μg/kg i.v. NKA; AUC of increase in airway pressure over 10 minutes", "protocol": "as §1, with “neurokinin A (NKA),” for “methacholine,”, “an NK2” for “a muscarine”\nas §2, with “mg/mL” for “mg/mL of”, “and” for “and then”, “4” for “30”, “NKA” for “methacholine”\nThe test substance was dissolved in a 5% glucose solution, and a 0.5 mL/kg solution was intratracheally administered with an intratracheal administration apparatus (model 1A-1B; Penn-Century, Inc.) 60 minutes before stimulation with NKA.\nas §3, with “NKA” for “methacholine”, “determined” for “measured”, “NKA-induced” for “methacholine-induced”, “(5%” for “(a 5%”"}},
  "note": "Structures can show the parent of a compound that is named as a salt.",
  "data": [
    {"smiles": "CN(CCN1CCC(OC(=O)Nc2ccccc2-c2ccccc2)CC1)C(=O)CCCCCNc1ccc(C(=O)N(C)CCCN(C)C(=O)CO[C@H]2Cc3ccccc3C23CCN(CC[C@@]2(c4ccc(F)cc4)CN(C(=O)c4cc(C(F)(F)F)cc(C(F)(F)F)c4)CO2)CC3)c(Cl)c1", "note": "[Example 85, 1-(2-{[6-({4-[{3-[({[(2S)-1′-{2-[(5R)-3-[3,5-Bis(trifluoromethyl)benzoyl]-5-(4-fluorophenyl)-1,3-oxazolidin-5-yl]ethyl}-2,3-dihydrospiro[indene-1,4′-piperidin]-2-yl]oxy}acetyl)(methyl)amino]propyl}(methyl)carbamoyl]-3-chlorophenyl}amino)hexanoyl](methyl)amino}ethyl)piperidin-4-yl biphenyl-2-ylcarbamate trihydrochloride]", "values": [
      {"measurement": "ID50", "setting": "muscarine M3 receptor", "result": 0.0327, "unit": "mg/kg"},
      {"measurement": "ED50", "setting": "neurokinin NK1 receptor; guinea pig, read-out: ID50 (the source's name)", "result": 0.0373, "unit": "mg/kg"},
      {"measurement": "Ki", "setting": "substance P receptor", "result": 2.2, "unit": "nM"},
      {"measurement": "Ki", "setting": "human M3 receptor", "result": 1.9, "unit": "nM"},
      {"measurement": "Ki", "setting": "human NK2 receptor", "result": 1, "unit": "nM"}
    ]},
    {"smiles": "CN(CCN1CCC(OC(=O)Nc2ccccc2-c2ccccc2)CC1)C(=O)CCCCCCNc1ccc(C(=O)N(C)CCCN(C)C(=O)CO[C@H]2Cc3ccccc3C23CCN(CC[C@@]2(c4ccc(F)cc4)CN(C(=O)c4cc(C(F)(F)F)cc(C(F)(F)F)c4)CO2)CC3)cc1.Cl.Cl.Cl", "note": "[Example 39]", "values": [
      {"measurement": "ID50", "setting": "muscarine M3 receptor", "result": 0.0559, "unit": "mg/kg"},
      {"measurement": "ID50", "setting": "neurokinin NK1 receptor", "result": 0.0388, "unit": "mg/kg"},
      {"measurement": "ID50", "setting": "neurokinin NK2 receptor", "result": 0.0336, "unit": "mg/kg"}
    ]},
    {"smiles": "CN(CCN1CCC(OC(=O)Nc2ccccc2-c2ccccc2)CC1)C(=O)CCCCCNc1nc(CC(=O)N(C)CCCN(C)C(=O)CO[C@H]2Cc3ccccc3C23CCN(CC[C@@]2(c4ccc(F)cc4)CN(C(=O)c4cc(C(F)(F)F)cc(C(F)(F)F)c4)CO2)CC3)cs1", "note": "[Example 88, 1-{2-[{6-[(4-{2-[{3-[({[(2S)-1′-{2-[(5R)-3-[3,5-Bis(trifluoromethyl)benzoyl]-5-(4-fluorophenyl)-1,3-oxazolidin-5-yl]ethyl}-2,3-dihydrospiro[indene-1,4′-piperidin]-2-yl]oxy}acetyl)(methyl)amino]propyl}(methyl)amino]-2-oxoethyl}-1,3-thiazol-2-yl)amino]hexanoyl}(methyl)amino]ethyl}piperidin-4-yl biphenyl-2-ylcarbamate trihydrochloride]", "values": [
      {"measurement": "ID50", "setting": "muscarine M3 receptor", "result": 0.006, "unit": "mg/kg"},
      {"measurement": "Ki", "setting": "substance P receptor", "result": 1.1, "unit": "nM"},
      {"measurement": "Ki", "setting": "human M3 receptor", "result": 0.31, "unit": "nM"},
      {"measurement": "Ki", "setting": "human NK2 receptor", "result": 0.72, "unit": "nM"}
    ]}
  ]
}
